Source: patent publication US9409866B2, “Pyridine-2-amides useful as CB2 agonists” (Hoffmann-La Roche Inc., priority 2012, dated 2016)
Read-outs that look alike come from different tables or passages of the source.

How the values were obtained:
human CB2 receptors = human CB2 receptors (Homo sapiens (Human), UniProt P34972); test: functional cAMP assay, CHO cells expressing human CB2; type: cell-based
Procedure: (§1) CHO cells expressing human CB1 or CB2 receptors are seeded 17-24 hours prior to the experiment 50.000 cells per well in a black 96 well plate with flat clear bottom (Corning Costar #3904) in DMEM (Invitrogen No. 31331), 1×HT supplement, with 10% fetal calf serum and incubated at 5% CO2 and 37° C. in a humidified incubator. The growth medium was exchanged with Krebs Ringer Bicarbonate buffer with 1 mM IBMX and incubated at 30° C. for 30 min. Compounds were added to a final assay volume of 100 μl and incubated for 30 min at 30° C. Using the cAMP-Nano-TRF detection kit the assay (Roche Diagnostics) was stopped by the addition of 50 μl lysis reagent (Tris, NaCl, 1.5% Triton X100, 2.5% NP40, 10% NaN3) and 50 μl detection solutions (20 μM mAb Alexa700-cAMP 1:1, and 48 μM Ruthenium-2-AHA-cAMP) and shaken for 2 h at room temperature. The time-resolved energy transfer is measured by a TRF reader (Evotec Technologies GmbH), equipped with a ND:YAG laser as excitation source. The plate is measured twice with the excitation at 355 nm and at the emission with a delay of 100 ns and a gate of 100 ns, total exposure time 10 s at 730 (bandwidth 30 nm) or 645 nm (bandwidth 75 nm), respectively. The FRET signal is calculated as follows: FRET=T730-Alexa730-P(T645-B645) with P=Ru730-B730/Ru645-B645, where T730 is the test well measured at 730 nM, T645 is the test well measured at 645 nm, B730 and B645 are the buffer controls at 730 nm and 645 nm, respectively. cAMP content is determined from the function of a standard curve spanning from 10 μM to 0.13 nM cAMP.
(§2) EC50 values were determined using Activity Base analysis (ID Business Solution, Limited). The EC50 values for a wide range of cannabinoid agonists generated from this assay were in agreement with the values published in the scientific literature.

human CB1 receptors = human CB1 receptors (Homo sapiens (Human), UniProt P21554); test: functional cAMP assay, CHO cells expressing human CB1; type: cell-based
Procedure: as §1, §2

[1] = functional cAMP assay, CHO cells expressing human CB1; read-out: Human CB1 EC50
[2] = Human CB1 EC50 (uM), functional cAMP assay, CHO cells expressing human CB1

Chain of human CB1 receptors (P21554 whole entry): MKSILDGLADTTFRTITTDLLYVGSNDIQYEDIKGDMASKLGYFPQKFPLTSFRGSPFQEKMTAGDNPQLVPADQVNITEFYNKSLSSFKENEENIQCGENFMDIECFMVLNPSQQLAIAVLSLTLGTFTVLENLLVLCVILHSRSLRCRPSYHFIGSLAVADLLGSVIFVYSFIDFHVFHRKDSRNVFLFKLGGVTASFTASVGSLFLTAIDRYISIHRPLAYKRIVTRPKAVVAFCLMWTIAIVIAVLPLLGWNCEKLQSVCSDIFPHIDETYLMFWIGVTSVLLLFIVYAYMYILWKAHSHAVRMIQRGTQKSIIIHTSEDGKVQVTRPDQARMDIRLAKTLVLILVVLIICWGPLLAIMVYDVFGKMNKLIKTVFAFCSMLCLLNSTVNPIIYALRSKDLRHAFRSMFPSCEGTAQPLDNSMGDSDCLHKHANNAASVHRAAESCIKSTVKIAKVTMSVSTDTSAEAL
Chain of human CB2 receptors (P34972 whole entry): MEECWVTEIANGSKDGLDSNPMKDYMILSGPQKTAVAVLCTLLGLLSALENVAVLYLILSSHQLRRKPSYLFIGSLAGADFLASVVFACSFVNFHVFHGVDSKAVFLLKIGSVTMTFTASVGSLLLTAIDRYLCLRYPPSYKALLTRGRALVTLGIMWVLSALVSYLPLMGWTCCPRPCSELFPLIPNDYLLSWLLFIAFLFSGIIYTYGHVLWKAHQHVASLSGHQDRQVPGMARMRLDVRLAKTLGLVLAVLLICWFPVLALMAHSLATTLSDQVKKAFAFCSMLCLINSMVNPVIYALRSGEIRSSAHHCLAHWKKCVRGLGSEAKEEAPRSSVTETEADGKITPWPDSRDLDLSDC

Cc1nc(C(C)(CS(C)(=O)=O)NC(=O)c2cc(O[C@@H](C)C(F)(F)F)c(N3CC(F)(F)C3)cn2)no1 (stereo partly drawn) [Example 102, 5-(3,3-Difluoro-azetidin-1-yl)-4-((S)-2,2,2-trifluoro-1-methyl-ethoxy)-pyridine-2-carboxylic acid [2-methanesulfonyl-1-methyl-1-(5-methyl-[1,2,4]oxadiazol-3-yl)-ethyl]-amide]
EC50 (human CB2 receptors; read-out: Human CB2 EC50): 0.116 µM
EC50 (human CB1 receptors; [1]): > 10 µM

Cc1nc(C(C)(NC(=O)c2cc(OCC(F)(F)F)c(C3(F)COC3)cn2)C2CC2)no1 (centres unmarked) [Example 139, N-[1-cyclopropyl-1-(5-methyl-1,2,4-oxadiazol-3-yl)ethyl]-5-(3-fluorooxetan-3-yl)-4-(2,2,2-trifluoroethoxy)pyridine-2-carboxamide]
EC50 (human CB2 receptors; read-out: Human CB2 EC50): 0.0006 µM
EC50 (human CB1 receptors; [1]): > 10 µM

CC(CF)Oc1cc(C(=O)NC(C)(CC(N)=O)C2CC2)ncc1C1CC1 (single isomer, unassigned) [Example 303, N-(4-amino-2-cyclopropyl-4-oxobutan-2-yl)-5-cyclopropyl-4-(1-fluoropropan-2-yloxy)picolinamide]
EC50 (human CB2 receptors; read-out: Human CB2 EC50): 0.0485 µM
EC50 (human CB1 receptors; [1]): > 10 µM

C[C@H](Oc1cc(C(=O)NC2(CC(N)=O)CS(=O)(=O)C2)ncc1C1CC1)C(F)(F)F [Example 266, N-[3-(2-amino-2-oxoethyl)-1,1-dioxothietan-3-yl]-5-cyclopropyl-4-[(2S)-1,1,1-trifluoropropan-2-yl]oxypyridine-2-carboxamide]
EC50 (human CB2 receptors; read-out: Human CB2 EC50): 0.0016 µM
EC50 (human CB1 receptors; [1]): > 10 µM

Cc1nc(C(C)(CS(C)(=O)=O)NC(=O)c2cc(OCC(F)(F)F)c(Cl)cn2)no1 (centres unmarked) [Example 80, 5-Chloro-4-(2,2,2-trifluoro-ethoxy)-pyridine-2-carboxylic acid [2-methanesulfonyl-1-methyl-1-(5-methyl-[1,2,4]oxadiazol-3-yl)-ethyl]-amide]
EC50 (human CB2 receptors; read-out: Human CB2 EC50): 0.969 µM
EC50 (human CB1 receptors; [1]): > 10 µM

CC[C@](C)(CO)NC(=O)c1cc(OCC2CC2)c(Cl)cn1 [Example 30, (−)-5-Chloro-4-cyclopropylmethoxy-pyridine-2-carboxylic acid (1-hydroxymethyl-1-methyl-propyl)-amide]
EC50 (human CB2 receptors; read-out: Human CB2 EC50): 0.0192 µM
EC50 (human CB1 receptors; [1]): > 10 µM

O=C(NC(c1ccccn1)C(F)(F)F)c1cc(OCC(F)(F)F)c(C2CC2)cn1 (centres unmarked) [Example 51, 5-Cyclopropyl-4-(2,2,2-trifluoro-ethoxy)-pyridine-2-carboxylic acid (2,2,2-trifluoro-1-pyridin-2-yl-ethyl)-amide]
EC50 (human CB2 receptors; read-out: Human CB2 EC50): 0.0122 µM
EC50 (human CB1 receptors; [1]): > 10 µM

CC(C)(C)C(NC(=O)c1cc(OC2COC2)c(Cl)cn1)c1nccs1 (centres unmarked) [Example 39, 5-Chloro-4-(oxetan-3-yloxy)-pyridine-2-carboxylic acid (2,2-dimethyl-1-thiazol-2-yl-propyl)-amide]
EC50 (human CB2 receptors; read-out: Human CB2 EC50): 0.128 µM
EC50 (human CB1 receptors; [1]): > 10 µM

Cc1nc(C(NC(=O)c2cc(O[C@@H](C)C(F)(F)F)c(C3CC3)cn2)C(C)(C)C)no1 (stereo partly drawn) [Example 221, 5-cyclopropyl-N-[2,2-dimethyl-1-(5-methyl-1,2,4-oxadiazol-3-yl)propyl]-4-[(2S)-1,1,1-trifluoropropan-2-yl]oxypyridine-2-carboxamide]
EC50 (human CB2 receptors; read-out: Human CB2 EC50): 0.0084 µM
EC50 (human CB1 receptors; [1]): > 10 µM

CC(C)(CO)NC(=O)c1cc(-c2cccc(Cl)c2)c(Cl)cn1 [Example 2, 5-Chloro-4-(3-chlorophenyl)-pyridine-2-carboxylic acid (2-hydroxy-1,1-dimethyl-ethyl)-amide]
EC50 (human CB2 receptors; read-out: Human CB2 EC50): 0.0963 µM
EC50 (human CB1 receptors; [1]): > 10 µM

CNC(=O)C(NC(=O)c1cc(OCC(F)(F)F)c(C2CC2)cn1)C(C)(C)C (single isomer, unassigned) [Example 224, 5-cyclopropyl-N-[3,3-dimethyl-1-(methylamino)-1-oxobutan-2-yl]-4-(2,2,2-trifluoroethoxy)pyridine-2-carboxamide]
EC50 (human CB2 receptors; Human CB2 EC50 (uM)): 0.0573 µM
EC50 (human CB1 receptors; [2]): > 10 µM

Cc1nc(C(C)(CC2CC2)NC(=O)c2cc(O[C@@H](C)C(F)(F)F)c(C3CC3)cn2)no1 (stereo partly drawn) [Example 101, 5-Cyclopropyl-4-((S)-2,2,2-trifluoro-1-methyl-ethoxy)-pyridine-2-carboxylic acid [2-cyclopropyl-1-methyl-1-(5-methyl-[1,2,4]oxadiazol-3-yl)-ethyl]-amide]
EC50 (human CB2 receptors; read-out: Human CB2 EC50): 0.0007 µM
EC50 (human CB1 receptors; [1]): 0.21 µM

Cc1nc(C(C)(CC2CC2)NC(=O)c2cc(OCC(F)(F)F)c(N3CC(F)(F)C3)cn2)no1 (centres unmarked) [Example 90, 5-(3,3-Difluoro-azetidin-1-yl)-4-(2,2,2-trifluoro-ethoxy)-pyridine-2-carboxylic acid [2-cyclopropyl-1-methyl-1-(5-methyl-[1,2,4]oxadiazol-3-yl)-ethyl]-amide]
EC50 (human CB2 receptors; read-out: Human CB2 EC50): 0.0177 µM
EC50 (human CB1 receptors; [1]): > 10 µM

CC(CF)Oc1cc(C(=O)NC(C)(CC(N)=O)C2CC2)ncc1C1CC1 (single isomer, unassigned) [Example 304, N-(4-amino-2-cyclopropyl-4-oxobutan-2-yl)-5-cyclopropyl-4-(1-fluoropropan-2-yloxy)picolinamide]
EC50 (human CB2 receptors; read-out: Human CB2 EC50): 0.0021 µM
EC50 (human CB1 receptors; [1]): 0.82 µM

CNC(=O)C(NC(=O)c1cc(OCC(F)(F)F)c(C2CC2)cn1)C(C)(C)O (centres unmarked) [Example 236, 5-cyclopropyl-N-[3-hydroxy-3-methyl-1-(methylamino)-1-oxobutan-2-yl]-4-(2,2,2-trifluoroethoxy)pyridine-2-carboxamide]
EC50 (human CB2 receptors; read-out: Human CB2 EC50): 0.0512 µM
EC50 (human CB1 receptors; [1]): > 10 µM

Cc1nc(C(C)(NC(=O)c2cc(O[C@@H](C)C(F)(F)F)c(C3(F)COC3)cn2)C2CC2)no1 (stereo partly drawn) [Example 169, N-[1-cyclopropyl-1-(5-methyl-1,2,4-oxadiazol-3-yl)ethyl]-5-(3-fluorooxetan-3-yl)-4-[(2S)-1,1,1-trifluoropropan-2-yl]oxypyridine-2-carboxamide]
EC50 (human CB2 receptors; read-out: Human CB2 EC50): 0.0055 µM
EC50 (human CB1 receptors; [1]): > 10 µM

Cc1nc(C(C)(NC(=O)c2cc(OCC(F)(F)F)c(C3CC3)cn2)C(=O)N2CCC2)no1 (centres unmarked) [Example 182, N-[1-(azetidin-1-yl)-2-(5-methyl-1,2,4-oxadiazol-3-yl)-1-oxopropan-2-yl]-5-cyclopropyl-4-(2,2,2-trifluoroethoxy)pyridine-2-carboxamide]
EC50 (human CB2 receptors; read-out: Human CB2 EC50): 0.0054 µM
EC50 (human CB1 receptors; [1]): > 10 µM

C[C@H](Oc1cc(C(=O)NC(C)(CC(N)=O)C2CC2)ncc1C1CC1)C(F)(F)F (stereo partly drawn) [Example 258, N-(4-amino-2-cyclopropyl-4-oxobutan-2-yl)-5-cyclopropyl-4-[(2S)-1,1,1-trifluoropropan-2-yl]oxypyridine-2-carboxamide]
EC50 (human CB2 receptors; read-out: Human CB2 EC50): 0.013 µM
EC50 (human CB1 receptors; [1]): > 10 µM

NC(=O)CC1(NC(=O)c2cc(OCC3CC3)c(N3CC(F)(F)C3)cn2)COC1 [Example 222, N-[3-(2-amino-2-oxoethyl)oxetan-3-yl]-4-(cyclopropylmethoxy)-5-(3,3-difluoroazetidin-1-yl)pyridine-2-carboxamide]
EC50 (human CB2 receptors; read-out: Human CB2 EC50): 0.0467 µM
EC50 (human CB1 receptors; [1]): > 10 µM

Cc1csc(C(C)(CC2CC2)NC(=O)c2cc(OCC(F)(F)F)c(C3CC3)cn2)n1 (centres unmarked) [Example 158, 5-cyclopropyl-N-[1-cyclopropyl-2-(4-methyl-1,3-thiazol-2-yl)propan-2-yl]-4-(2,2,2-trifluoroethoxy)pyridine-2-carboxamide]
EC50 (human CB2 receptors; read-out: Human CB2 EC50): 0.0958 µM
EC50 (human CB1 receptors; [1]): > 10 µM

C[C@H](Oc1cc(C(=O)NC(C)(CC(N)=O)C2CC2)ncc1C1(F)COC1)C(F)(F)F (single isomer, unassigned) [Example 277]
EC50 (human CB2 receptors; Human CB2 EC50 (uM)): 0.0431 µM
EC50 (human CB1 receptors; [2]): > 10 µM

C[C@H](Oc1cc(C(=O)NC(C)(CC(N)=O)C2CC2)ncc1C1(F)COC1)C(F)(F)F (single isomer, unassigned) [Example 278]
EC50 (human CB2 receptors; Human CB2 EC50 (uM)): 0.0929 µM
EC50 (human CB1 receptors; read-out: Human CB1 EC50; functional cAMP assay, CHO cells expressing human CB1): > 10 µM

Cc1nc([C@](C)(CC2CC2)NC(=O)c2cc(OCC(F)(F)F)c(N3CC(F)(F)C3)cn2)no1 (single isomer, unassigned) [Example 92, 5-(3,3-Difluoro-azetidin-1-yl)-4-(2,2,2-trifluoro-ethoxy)-pyridine-2-carboxylic acid [2-cyclopropyl-1-methyl-1-(5-methyl-[1,2,4]oxadiazol-3-yl)-ethyl]-amide]
EC50 (human CB2 receptors; Human CB2 EC50 (uM)): 0.0214 µM
EC50 (human CB1 receptors; [2]): > 10 µM

CNC(=O)C(NC(=O)c1cc(O[C@@H](C)C(F)(F)F)c(C2CC2)cn1)C(C)(C)O (stereo partly drawn) [Example 238, 5-cyclopropyl-N-[3-hydroxy-3-methyl-1-(methylamino)-1-oxobutan-2-yl]-4-[(2S)-1,1,1-trifluoropropan-2-yl]oxypyridine-2-carboxamide]
EC50 (human CB2 receptors; read-out: Human CB2 EC50): 0.0274 µM
EC50 (human CB1 receptors; [1]): > 10 µM

Cc1nc(C(C)(CC2CC2)NC(=O)c2cc(O[C@@H](C)C(F)(F)F)c(C3CCC3)cn2)no1 (stereo partly drawn) [Example 110, 5-Cyclobutyl-4-((S)-2,2,2-trifluoro-1-methyl-ethoxy)-pyridine-2-carboxylic acid [2-cyclopropyl-1-methyl-1-(5-methyl-[1,2,4]oxadiazol-3-yl)-ethyl]-amide]
EC50 (human CB2 receptors; read-out: Human CB2 EC50): 0.0008 µM
EC50 (human CB1 receptors; [1]): 0.31 µM
